Measurements taken from US9889180B2, “Method of treating cancer” (Agency for Science, Technology and Research, priority 2012, dated 2018).

Assays:
[1] = test system: RWPE1-PI3K cells; experiment: FACS cell death analysis in RWPE1-PI3K cells; assay type: cell-based, human; conditions: DZNep (2.5 μM) for 3 days with increasing doses of IFN-γ
Experimental: For the assessment of cell death, cells were harvested in 70% ethanol. Fixed cells were stained with Propidium Iodide (P.I) (50 μg/mL). The stained cells were analyzed for DNA content by FACS in a FACSCalibur (Becton Dickinson Instrument). % of cell death was defined as the sub-G1 population quantified using the CellQuest software (Becton Dickinson). The percentage of dead cells or sub-G1 cells was calculated by comparing the results of each experiment to the results from DMSO-treated cells. Each assay was repeated a minimum of three times, with results reported as means+s.e.m.

[2] = test system: IFNGR1 promoter; experiment: ChIP analysis of EZH2 and H3K27me3 enrichments at IFNGR1 in DU145 cells; assay type: cell-based, human; conditions: DZNep (2.5 μM), 3 days
Experimental: ChIP assays were performed as described previously. […] The immunoprecipitated DNA was quantified by quantitative real-time PCR using KAPA SyBr Fast qPCR kit (KAPA biosystems) with the specific ChIP primers as listed in the Table 4. Quantification of binding to the promoter was defined as the percentage of the whole cell lysate input DNA. The fold enrichment was derived by normalizing the specific antibody enriched against the IgG-enriched chromatin. CNR1 serves a positive control and Actin is a negative control. Significance of target genes was assessed relative to Actin level.

[3] = target: T1, EZH2/PRC2 and H3K27me3 (Homo sapiens, UniProt Q15910); experiment: Western blot of PRC2 proteins and H3K27me3 in DU145 cells; assay type: cell-based; conditions: DZNep
T1 construct: endogenous in cells; host or cells: DU145 (named by the earlier reading of the assay)
Experimental: Western Blotting was performed as described previously. Briefly, Cells were scraped, collected, and lysed in RIPA buffer. To release histones from chromatin, cell lysates were further sonicated for 15 sec using a XL2000 Microson Ultrasonic Processor (Misonix). Equal amounts of protein (30 μg) were separated on SDS-polyacrylamide gels and transferred to PVDF membranes. The blots were probed with antibodies against EED (07-368), SUZ12 (07-379), trimethylated H3-K27 (07-449), Acetyl-Histone H3 (06-599), which were purchased from Upstate Biotechnology. IFNGR1 (GIR-94) and anti-IFI16 (1G7) were purchased from Santa Cruz. EZH2 phospho S21 (00388) was purchased from Bethyl Laboratories. EZH2 (AC22), P110α PI3K, p-AKT (T308), p-AKT (S473), pSTAT1Y701, total STAT1, Histone H3 (3H1), Beclin-1 and cleaved PARP were purchased from Cell Signaling. Myc and Actin were purchased from Roche Applied Science and Sigma-Aldrich, respectively.

[4] = test system: JAK2 phosphorylation (Tyr1007/1008); experiment: pJAK2 and total JAK2 ELISA assay in DU145 cells; assay type: cell-based, human; conditions: in response to IFN-γ (25 ng/mL) stimulation
Experimental: pJAK2 levels were assessed using an ELISA assay kit (Tyr1007/1008, Life Technologies) and total JAK2 level with JAK2 (total) ELISA assay kit. Cells were first lysed with RIPA buffer and processed in the same way as western blot samples. pJAK2 and total JAK2 levels were determined by performing the ELISA assay on the processed cell lysates according to the manufacturer's protocol. The results were expressed as fold change after normalizing the pJAK2 (Tyr1007/1008) level to the total JAK2 level.

[5] = test system: DU145-derived prostatospheres; experiment: Prostatosphere formation assay, DU145; assay type: cell-based, human; conditions: EZH2 knockdown in combination with IFN-γ, 7 days
Experimental: Prostatospheres were generated according to protocols known to the skilled person in the art. In order to obtain prostatospheres from either DU145 or LNCaP, exponentially growing cultures were dissociated to single cells by standard trypsinization, washed three times with PBS and plated at a density of 1×10^4 cells/well in 6-well ultra-low attachment plates (Corning) containing 3 ml of SCM medium (DMEM:F12 plus 10 ng/mL bFGF, 20 ng/mL EGF, […], and 0.4% BSA) supplemented with 1% KO serum replacement (Invitrogen/Gibco). The cells were treated with DZNep or IFN-γ as indicated the next day and cultured for 7 days. 7 days old prostatospheres formed were stained with 4 μg/ml p-Iodonitrotetrazolium Violet (INT) overnight and were counted and analyzed using a GelCount™ automatic plate scanner (Oxford Optronics) and GelCount Version 0.025.1 software (Oxford Optronics). Plates were scanned at 1200 dpi and the colony detection algorithm was optimized for each cell type and culture time.

[6] = test system: IFNGR1 expression; experiment: qRT-PCR of IFNGR1 and IFNAR1 in RWPE1-MYC cells; assay type: cell-based, human
Experimental: (§1) Target-specific siRNA and non-targeting control siRNA were purchased from 1st Base Singapore and Integrated DNA technologies (IDT) with the following target sequences respectively: EZH2 siRNA: 5′-GACUCUGAAUGCAGUUGCU-3′ (SEQ ID NO: 1); MYC siRNA: 5′-[…]-3′ (SEQ ID NO:2). All siRNA were designed by 1st Base Singapore and IDT respectively. For transfection, 30 nM siRNAs were used to transfect cells. 48 h after transfection cell pellets were collected and subjected indicated assays.
(§2) Total RNA was isolated by using Trizol (Invitrogen) and purified with the RNeasy Mini Kit (Qiagen). The microarray hybridization was performed using the Illumina Gene Expression Sentrix BeadChip HumanRef-8_V3, and data analysis was performed by GeneSpring software from Agilent Technologies as described previously. The analyzed gene sets by GeneSpring were next subjected to Ingenuity Pathway Analysis (IPA) for gene ontology (GO) analysis. Reverse transcription and quantitative PCR assays were performed using High Capacity cDNA Archive kit and KAPA SyBr Fast qPCR kit (KAPA biosystems). For quantification of mRNA levels, 18S level was used as an internal control. All reactions were analyzed in an Applied Biosystems PRISM 7500 Fast Real-Time PCR system in 96-well plate format.

[7] = test system: IFN responsive genes (MX1, IRF1, IFI16); experiment: qRT-PCR of IFN responsive genes in PC3 cells; assay type: cell-based, human; conditions: in response to IFN-γ stimulation
Experimental: as §1, §2

[8] = test system: LNCaP cells; experiment: Cell proliferation assay (CellTiter-Glo) in LNCaP cells; assay type: cell-based, human; conditions: siRNA knockdown combined with IFN-γ treatment
Experimental: The optimal cell seeding was determined empirically for all cell lines by examining the growth of a wide range of seeding densities in a 96-well format to identify conditions that permitted proliferation for 6 days. Cells were then plated at the optimal seeding density 24 h before siRNA or drug treatment in triplicate. Plates were incubated for 6 days at 37° C. in 5% CO2. Cells were then lysed with CellTiter-Glo (CTG) (Promega) and chemiluminescent signal was detected with a microplate reader (TECAN). In addition, an untreated plate of cells was harvested at the time of drug or siRNA addition (T0) to quantify the starting number of cells. CTG values obtained after the 6 day treatment were expressed as percentages of the T0 value and plotted against time of treatment. Cells received 1-5 μM of DZNep, 25 ng/mL of IFN-γ and 0.1-2.5 μM of GSK343 unless stated otherwise for 72-96 h.

T1 sequence (Q15910 whole entry): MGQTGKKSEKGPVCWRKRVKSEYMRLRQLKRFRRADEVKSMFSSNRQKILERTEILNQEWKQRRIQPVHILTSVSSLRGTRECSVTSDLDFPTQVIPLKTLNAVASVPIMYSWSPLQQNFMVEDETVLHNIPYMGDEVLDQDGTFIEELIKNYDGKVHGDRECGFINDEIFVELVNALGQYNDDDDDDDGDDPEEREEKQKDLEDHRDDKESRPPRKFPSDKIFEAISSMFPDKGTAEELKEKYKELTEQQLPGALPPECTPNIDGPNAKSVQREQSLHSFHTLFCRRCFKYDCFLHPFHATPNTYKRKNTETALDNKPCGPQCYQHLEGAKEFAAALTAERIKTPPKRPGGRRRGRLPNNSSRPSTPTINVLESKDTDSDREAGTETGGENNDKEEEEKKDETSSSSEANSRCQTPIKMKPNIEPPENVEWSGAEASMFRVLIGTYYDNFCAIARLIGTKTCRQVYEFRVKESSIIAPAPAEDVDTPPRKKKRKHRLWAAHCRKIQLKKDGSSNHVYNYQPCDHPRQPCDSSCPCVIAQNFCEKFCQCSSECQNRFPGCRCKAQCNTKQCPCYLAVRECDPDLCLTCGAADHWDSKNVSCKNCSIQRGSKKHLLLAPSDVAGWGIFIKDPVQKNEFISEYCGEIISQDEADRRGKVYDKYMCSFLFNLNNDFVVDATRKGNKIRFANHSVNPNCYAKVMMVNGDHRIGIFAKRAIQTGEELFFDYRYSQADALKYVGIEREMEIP
T1 sequence (O75530 whole entry partner): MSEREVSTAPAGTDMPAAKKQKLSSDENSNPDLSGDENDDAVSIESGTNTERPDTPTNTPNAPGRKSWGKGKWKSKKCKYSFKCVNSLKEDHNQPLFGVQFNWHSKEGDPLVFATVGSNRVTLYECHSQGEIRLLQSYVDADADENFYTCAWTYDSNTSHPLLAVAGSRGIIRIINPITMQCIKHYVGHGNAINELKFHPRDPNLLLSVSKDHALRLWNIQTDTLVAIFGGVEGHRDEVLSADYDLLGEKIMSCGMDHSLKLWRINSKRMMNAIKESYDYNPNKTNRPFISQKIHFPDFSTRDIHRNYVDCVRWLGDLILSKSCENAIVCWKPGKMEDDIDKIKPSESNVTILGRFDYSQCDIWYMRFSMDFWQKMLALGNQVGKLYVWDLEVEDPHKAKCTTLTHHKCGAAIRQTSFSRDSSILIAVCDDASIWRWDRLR
T1 sequence (Q15022 whole entry partner): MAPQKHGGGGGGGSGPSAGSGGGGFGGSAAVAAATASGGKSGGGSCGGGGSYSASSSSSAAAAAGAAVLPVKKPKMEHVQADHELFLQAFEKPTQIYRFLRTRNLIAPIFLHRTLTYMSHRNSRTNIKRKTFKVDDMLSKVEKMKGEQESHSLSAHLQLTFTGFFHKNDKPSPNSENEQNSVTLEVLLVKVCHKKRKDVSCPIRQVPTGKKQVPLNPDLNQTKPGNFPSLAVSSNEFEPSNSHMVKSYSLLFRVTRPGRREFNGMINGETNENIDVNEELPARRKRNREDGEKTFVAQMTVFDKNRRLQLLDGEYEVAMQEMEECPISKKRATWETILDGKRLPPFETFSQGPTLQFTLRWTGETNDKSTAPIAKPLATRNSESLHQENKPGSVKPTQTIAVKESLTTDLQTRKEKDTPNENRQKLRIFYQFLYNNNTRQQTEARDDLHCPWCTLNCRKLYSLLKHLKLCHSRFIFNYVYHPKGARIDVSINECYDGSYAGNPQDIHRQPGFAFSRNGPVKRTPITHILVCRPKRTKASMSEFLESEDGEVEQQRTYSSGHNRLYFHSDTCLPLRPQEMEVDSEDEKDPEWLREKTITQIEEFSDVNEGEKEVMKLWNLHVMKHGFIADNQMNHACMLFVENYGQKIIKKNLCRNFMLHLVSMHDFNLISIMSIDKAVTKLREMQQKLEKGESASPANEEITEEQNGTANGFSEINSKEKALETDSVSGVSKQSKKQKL

Molecule	induction of apoptosis / cell death [1]	EZH2 and H3K27me3 enrichments at the IFNGR1 gene promoter [2]	PRC2 protein levels (EZH2, EED, SUZ12) [3]	depletion of H3K27me3 [3]	JAK2 phosphorylation after knockdown [4]	tumorsphere formation after knockdown [5]	IFNGR1 expression after knockdown [6]	activation of IFN genes after knockdown [7]	cell growth after knockdown [8]
Cl.Nc1nccc2c1ncn2[C@@H]1C=C(CO)[C@@H](O)[C@H]1O [DZNep, (−)-1-[(1R,4R,5S)-3-(Hydroxymethyl)-4,5-dihydroxy-2-cyclopenten-1-yl]4-aminoimidazo[4,5-c]pyridine hydrochloride]	but not RWPE1-PI3K cells	reduced both EZH2 and H3K27me3 enrichments	depleted EZH2, as well as the other two PRC2 proteins EED and SUZ12	much lower efficiency in depleting H3K27me3					
EZH2 knockdown: EZH2 siRNA: 5′-GACUCUGAAUGCAGUUGCU-3′ (SEQ ID NO: 1) (other strand not given here)					enhanced	efficiently inhibited the tumorsphere formation	restore the expression of IFNGR1	robust activation of IFN genes	no such an effect was seen
